Tests used:
microtubule assembly = experiment: In vitro microtubule assembly kinetics; format: biochemical; conditions: rank order
Method: (A) In vitro Microtubule Assembly Kinetics Studies
The microtubule assembly study was conducted using both 2' and 7-derivatives according to the in vitro procedures disclosed, for example, in Mellado et al., Biochemical and Biophysical Research Communications, Vol. 124, No. 2 (1984), pp. 329-336; Magri et al., J. Org. Chem., 51, 797-802 (1986); and Parness et al., Biochemical and Biophysical Research Communications, Vol. 105, No. 3, pp. 1082-1091 (1982).

B-16 melanoma cells = experiment: In vitro B16 melanoma cell proliferation; format: cell-based; conditions: rank order
Method: These studies were conducted according to standard procedures as described in Donoso and Himes, Cancer Biochem. Biophysics, vol. 7, (1984), p. 133.

[1] = system: human mammary carcinoma MX-1 xenograft; experiment: Subrenal capsule human mammary carcinoma MX-1 xenograft in mice; conditions: for ANML BODY WT DIFF (test minus control) / TEST BODY WT CHG / # OF ANMLS ALIVE CALC/TOTAL / Average tumor WEIGHT CHANGE (DELTA) / Average tumor weight, FINAL: Q4D; for ANML BODY WT DIFF (test minus control) / TEST BODY WT CHG: Day 1 to 11; for # OF ANMLS ALIVE CALC/TOTAL / Average tumor WEIGHT CHANGE (DELTA) / Average tumor weight, FINAL / % T/C: Day 11; for % T/C: Q4D Days 1, 5, 9
Text: The procedures followed are those described at pages 23-24 of NIH Publication No. 84-2635, In Vivo Cancer Model (February 1984).
In the procedure, test groups of mice (6 mice per test group) and control groups of 12 mice per group are utilized. A tumor fragment (human mammary carcinoma MX-1 xenograft), is implanted under the membranous covering of the kidney of each mouse.
Day 0: Anesthetize animals. Record body weight (Weigh Day 1). Implant tumor, measure and record. Randomize animals after they recover from the anesthetic. Run bacterial cultures. Determine solubilities of test agent. Record deaths daily.
Day 1: Check cultures. Discard experiment if contaminated. Prepare test materials. Initiate test agent injections (in the nape of the neck) based on individual body weight. Treatment is Q4D on Days 1, 5, and 9. Prepare test agent fresh on each injection day and administer based on individual body weight for that day.
Days 5 and 9: Prepare test agent fresh on each injection day and administer based on individual body weight for that day.
Day 11: End and evaluate experiment. Record body weights (Weigh Day 2). Measure tumor in OMU's (Ocular Micrometer Unit--10 OMU's=1 mm) and record.
The parameter measured is mean tumor weight change (delta) based on length and width measurements in millimeters. Mean animal body weights are computed for Day 1 and Day 11, compute T/C for all test groups with>65% survivors on Day 11. An excessive body weight change difference (test minus control) may also be used in evaluating toxicity. The dimensions are measured and recorded in Ocular Micrometer Units (OMU). A computer is utilized for the following:
(1) Converts OMU's to millimeters (mm).
(2) Calculates tumor weights (mgs) from tumor dimensions (mm×mm) following the formula for the volume of a prolate ellipsoid: [formula] (3) Calculates the change (delta) in mean tumor weight for each group of mice:
Change in Mean Tumor Weight=Mean Tumor WeightFINAL -Mean Tumor WeightINITIAL.
(4) Calculates the change (delta) in mean tumor weight for test (T) and control (C) groups.
(5) Calculates T/C% for all test groups with>65% survivors on Final Evaluation Day: [formula]

[2] = in words; cited from earlier work
microtubules = conditions: in vitro / cells, in words; cited from earlier work
tumors = conditions: in words; cited from earlier work

Q: Which “Ability to assemble microtubules (order)” value (microtubule assembly) does the source give for `CC(=O)O[C@H]1C(=O)[C@@]2(C)[C@H]([C@H](OC(=O)c3ccccc3)[C@]3(O)C[C@H](OC(=O)[C@H](O)[C@@H](NC(=O)c4ccccc4)c4ccccc4)C(C)=C1C3(C)C)[C@]1(OC(C)=O)CO[C@@H]1C[C@@H]2O` [Taxol] here?
A: taxol >7-(N,N-dimethylglycyl)taxol(11)>2'(N,N-diethylaminopropionyl)taxol(8)>2'(N,N-dimethylglycyl)taxol(2)

Q: And the “Order of effectiveness in B-16 melanoma cell proliferation study” value (B-16 melanoma cells)?
A: taxol>2'-(N,N-dimethylglycyl)taxol>2'-(N,N-diethylaminopropionyl)taxol>7-(N,N-dimethylglycyl)taxol

Q: What about the “ANML BODY WT DIFF (test minus control)” value ([1]; Table 1, 4.45 mg/kg) of the same compound?
A: .5

Q: And the “TEST BODY WT CHG” value ([1]; Table 1, 4.45 mg/kg)?
A: -1.2

Q: And the “# OF ANMLS ALIVE CALC/TOTAL” value ([1]; Table 1, 4.45 mg/kg)?
A: 5/5

Q: And the “Average tumor WEIGHT CHANGE (DELTA)” value ([1]; Table 1, 4.45 mg/kg)?
A: -.79 MGS

Q: What about the “Average tumor weight, FINAL” value ([1]; Table 1, 4.45 mg/kg) of the same compound?
A: .00 MGS

Q: What about the “ANML BODY WT DIFF (test minus control)” value ([1]; Table 1, 6.67 mg/kg) of the same compound?
A: .2

Q: What about the “TEST BODY WT CHG” value ([1]; Table 1, 6.67 mg/kg) of the same compound?
A: -1.5

Q: And the “# OF ANMLS ALIVE CALC/TOTAL” value ([1]; Table 1, 6.67 mg/kg)?
A: 5/5

Q: And the “Average tumor WEIGHT CHANGE (DELTA)” value ([1]; Table 1, 6.67 mg/kg)?
A: -.74 MGS

Q: And the “Average tumor weight, FINAL” value ([1]; Table 1, 6.67 mg/kg)?
A: .00 MGS

Q: And the “% T/C” value ([1]; Table 1, 10.00 mg/kg)?
A: -84%

Q: And the “ANML BODY WT DIFF (test minus control)” value ([1]; Table 1, 10.00 mg/kg)?
A: -.3

Q: And the “TEST BODY WT CHG” value ([1]; Table 1, 10.00 mg/kg)?
A: -2.0

Q: And the “# OF ANMLS ALIVE CALC/TOTAL” value ([1]; Table 1, 10.00 mg/kg)?
A: 6/6

Q: And the “Average tumor WEIGHT CHANGE (DELTA)” value ([1]; Table 1, 10.00 mg/kg)?
A: -.49 MGS

Q: What about the “Average tumor weight, FINAL” value ([1]; Table 1, 10.00 mg/kg) of the same compound?
A: .09 MGS

Q: What about the “ANML BODY WT DIFF (test minus control)” value ([1]; Table 1, 15.00 mg/kg) of the same compound?
A: -2.5

Q: And the “TEST BODY WT CHG” value ([1]; Table 1, 15.00 mg/kg)?
A: -4.2

Q: What about the “# OF ANMLS ALIVE CALC/TOTAL” value ([1]; Table 1, 15.00 mg/kg) of the same compound?
A: 6/6

Q: And the “Average tumor WEIGHT CHANGE (DELTA)” value ([1]; Table 1, 15.00 mg/kg)?
A: -.81 MGS

Q: And the “Average tumor weight, FINAL” value ([1]; Table 1, 15.00 mg/kg)?
A: .00 MGS

Q: And the “% T/C” value ([1]; Table 1, 22.40 mg/kg)?
A: TOX

Q: And the “ANML BODY WT DIFF (test minus control)” value ([1]; Table 1, 22.40 mg/kg)?
A: -.9

Q: And the “TEST BODY WT CHG” value ([1]; Table 1, 22.40 mg/kg)?
A: -2.6

Q: And the “# OF ANMLS ALIVE CALC/TOTAL” value ([1]; Table 1, 22.40 mg/kg)?
A: 3/6

Q: What about the “Average tumor weight, FINAL” value ([1]; Table 1, 22.40 mg/kg) of the same compound?
A: .00 MGS

Q: And the “% T/C” value ([1]; Table 2, 1.88 mg/kg)?
A: 5%

Q: And the “ANML BODY WT DIFF (test minus control)” value ([1]; Table 2, 1.88 mg/kg)?
A: 3.0

Q: And the “TEST BODY WT CHG” value ([1]; Table 2, 1.88 mg/kg)?
A: -1.0

Q: And the “# OF ANMLS ALIVE CALC/TOTAL” value ([1]; Table 2, 1.88 mg/kg)?
A: 4/5

Q: What about the “Average tumor WEIGHT CHANGE (DELTA)” value ([1]; Table 2, 1.88 mg/kg) of the same compound?
A: .71 MGS

Q: And the “Average tumor weight, FINAL” value ([1]; Table 2, 1.88 mg/kg)?
A: 1.51 MGS

Q: And the “ANML BODY WT DIFF (test minus control)” value ([1]; Table 2, 3.75 mg/kg)?
A: 1.1

Q: And the “TEST BODY WT CHG” value ([1]; Table 2, 3.75 mg/kg)?
A: -2.9

Q: What about the “# OF ANMLS ALIVE CALC/TOTAL” value ([1]; Table 2, 3.75 mg/kg) of the same compound?
A: 4/5

Q: And the “Average tumor WEIGHT CHANGE (DELTA)” value ([1]; Table 2, 3.75 mg/kg)?
A: -.71 MGS

Q: And the “Average tumor weight, FINAL” value ([1]; Table 2, 3.75 mg/kg)?
A: .00 MGS

Q: And the “% T/C” value ([1]; Table 2, 7.50 mg/kg)?
A: TOX

Q: What about the “ANML BODY WT DIFF (test minus control)” value ([1]; Table 2, 7.50 mg/kg) of the same compound?
A: 2.3

Q: What about the “TEST BODY WT CHG” value ([1]; Table 2, 7.50 mg/kg) of the same compound?
A: -1.7

Q: What about the “# OF ANMLS ALIVE CALC/TOTAL” value ([1]; Table 2, 7.50 mg/kg) of the same compound?
A: 3/5

Q: And the “Average tumor weight, FINAL” value ([1]; Table 2, 7.50 mg/kg)?
A: .00 MGS

Q: What about the “% T/C” value ([1]; Table 2, 15.00 mg/kg) of the same compound?
A: TOX

Q: What about the “# OF ANMLS ALIVE CALC/TOTAL” value ([1]; Table 2, 15.00 mg/kg) of the same compound?
A: 0/5

Q: What about the Water solubility [2] of the same compound?
A: only very slightly soluble in water

Q: And the Effect on microtubules (microtubules)?
A: promotes the assembly of microtubules but inhibits their disassembly

Q: What about the Antitumor activity (tumors) of the same compound?
A: potent antitumor activity against a wide variety of tumors
